Data from ChEMBL document CHEMBL3885881, “DrugMatrix”.

Organism: Rattus norvegicus
Assay: DrugMatrix - Regimen: Daily Repeat
Format: toxicity, organism-based, Sprague-Dawley
Design: regimen Daily Repeat, gender Male, age 6-8 weeks
Conditions: in vivo, po, 300 mg/kg, route oral GAVAGE, dose level Low, vehicle 100 % WATER; for ABSOLUTE BASOPHIL / ABSOLUTE EOSINOPHIL / ABSOLUTE LYMPHOCYTE / ABSOLUTE MONOCYTE / ABSOLUTE SEGMENTED NEUTROPHIL / BASOPHIL / EOSINOPHIL / ERYTHROCYTE COUNT / HEMATOCRIT / HEMOGLOBIN / LEUKOCYTE COUNT / LYMPHOCYTE / MEAN CORPUSCULAR HEMOGLOBIN / MEAN CORPUSCULAR HEMOGLOBIN CONCENTRATION / MEAN CORPUSCULAR VOLUME / MONOCYTE / NEUTROPHIL / NUCLEATED RED BLOOD CELLS / PLATELET COUNT: tissue Blood; for ALANINE AMINOTRANSFERASE / ALBUMIN / ALKALINE PHOSPHATASE / ASPARTATE AMINOTRANSFERASE / BLOOD UREA NITROGEN / CARBON DIOXIDE / CHLORIDE / CHOLESTEROL / CREATINE PHOSPHOKINASE / CREATININE / GLUCOSE / LACTATE DEHYDROGENASE / LIPASE / PHOSPHORUS / POTASSIUM / SODIUM / TOTAL BILIRUBIN / TOTAL PROTEIN / URIC ACID: tissue Plasma

## O=C(O)CCNC(=O)c1ccc(/N=N/c2ccc(O)c(C(=O)O)c2)cc1 [BALSALAZIDE]
72 h, time 3 day
  ABSOLUTE BASOPHIL: 0 CELLS/uL
  ABSOLUTE EOSINOPHIL: 0 CELLS/uL
  ABSOLUTE LYMPHOCYTE: 11801 CELLS/uL
  ABSOLUTE MONOCYTE: 66 CELLS/uL
  ABSOLUTE SEGMENTED NEUTROPHIL: 833 CELLS/uL
  BASOPHIL: 0%
  EOSINOPHIL: 0%
  ERYTHROCYTE COUNT: 5.38 x10E6/uL
  HEMATOCRIT: 33.73%
  HEMOGLOBIN: 13.5 G/DL
  LEUKOCYTE COUNT: 12.7 x10E3/uL
  LYMPHOCYTE: 93.33%
  MEAN CORPUSCULAR HEMOGLOBIN: 25.13 pg
  MEAN CORPUSCULAR HEMOGLOBIN CONCENTRATION: 40.03 G/DL
  MEAN CORPUSCULAR VOLUME: 62.7 fL
  MONOCYTE: 0.33%
  NEUTROPHIL: 6.33%
  NUCLEATED RED BLOOD CELLS: 0 /100WBC
  PLATELET COUNT: 922 x10E3/uL
  ALANINE AMINOTRANSFERASE: 56.33 u/L
  ALBUMIN: 4.23 G/DL
  ALKALINE PHOSPHATASE: 481.33 u/L
  ASPARTATE AMINOTRANSFERASE: 94 u/L
  BLOOD UREA NITROGEN: 17.33 mg/dL
  CARBON DIOXIDE: 29 mmol/L
  CHLORIDE: 103.67 MEQ/L
  CHOLESTEROL: 73.33 mg/dL
  CREATINE PHOSPHOKINASE: 306.67 u/L
  CREATININE: 0.22 mg/dL
  GLUCOSE: 159.33 mg/dL
  LACTATE DEHYDROGENASE: 328 u/L
  LIPASE: 8 u/L
  PHOSPHORUS: 13.87 mg/dL
  POTASSIUM: 6.3 MEQ/L
  SODIUM: 144.33 MEQ/L
  TOTAL BILIRUBIN: 0.2 mg/dL
  TOTAL PROTEIN: 5.93 G/DL
  URIC ACID: 1.5 mg/dL
120 h, time 5 day
  ABSOLUTE BASOPHIL: 0 CELLS/uL
  ABSOLUTE EOSINOPHIL: 53.33 CELLS/uL
  ABSOLUTE LYMPHOCYTE: 8092.67 CELLS/uL
  ABSOLUTE MONOCYTE: 26.67 CELLS/uL
  ABSOLUTE SEGMENTED NEUTROPHIL: 694 CELLS/uL
  BASOPHIL: 0%
  EOSINOPHIL: 0.67%
  ERYTHROCYTE COUNT: 5.99 x10E6/uL
  HEMATOCRIT: 38.2%
  HEMOGLOBIN: 14.6 G/DL
  LEUKOCYTE COUNT: 8.87 x10E3/uL
  LYMPHOCYTE: 91%
  MEAN CORPUSCULAR HEMOGLOBIN: 24.43 pg
  MEAN CORPUSCULAR HEMOGLOBIN CONCENTRATION: 38.2 G/DL
  MEAN CORPUSCULAR VOLUME: 63.9 fL
  MONOCYTE: 0.33%
  NEUTROPHIL: 8%
  NUCLEATED RED BLOOD CELLS: 0 /100WBC
  PLATELET COUNT: 965 x10E3/uL
  ALANINE AMINOTRANSFERASE: 61.67 u/L
  ALBUMIN: 4.17 G/DL
  ALKALINE PHOSPHATASE: 384.67 u/L
  ASPARTATE AMINOTRANSFERASE: 83.67 u/L
  BLOOD UREA NITROGEN: 17.67 mg/dL
  CARBON DIOXIDE: 28.67 mmol/L
  CHLORIDE: 102 MEQ/L
  CHOLESTEROL: 63.33 mg/dL
  CREATINE PHOSPHOKINASE: 238.33 u/L
  CREATININE: 0.22 mg/dL
  GLUCOSE: 182.67 mg/dL
  LACTATE DEHYDROGENASE: 142.67 u/L
  LIPASE: 12.33 u/L
  PHOSPHORUS: 14.5 mg/dL
  POTASSIUM: 6.43 MEQ/L
  SODIUM: 146.73 MEQ/L
  TOTAL BILIRUBIN: 0.2 mg/dL
  TOTAL PROTEIN: 6.07 G/DL
  URIC ACID: 2.17 mg/dL
